Experimental data: patent US20250368962A1, “THREE-DIMENSIONAL HEPATIC TISSUE AND METHOD OF MANUFACTURING THE SAME” (TOPPAN HOLDINGS INC., priority 2023, published 2025)

Test system: three-dimensional hepatic tissue consisting only of human hepatocytes (PXB cells)
Assay: ATP assay (CellTiter Glo 3D) viability after exposure to hepatotoxicity-inducing compounds, Test Example 6 Condition 1
Type: cell-based
Details: Hepatocyte, calculated from cell viability (ATP), exposure 168 hours from day 8 of culture, no bile acids, read-out: IC50 Condition 1 (present tissue)
Description: The resulting mixture was centrifuged at room temperature at 400×g for 2 minutes, the supernatant was removed, and the cells were resuspended in an HCM (product number “CC-3198”, manufactured by Lonza) containing 10 U/mL thrombin (product number “R4648”, manufactured by Sigma-Aldrich) and 1 v/v % endothelial cell growth supplement (ECGS) (product number “1052”, manufactured by Sciencell) to a cell density of 1.95×10^4 cells/2 μL to obtain a cell suspension.
2 μL of an HCM containing 5 mg/mL fibrinogen and 1 v/v % ECGS was added to a 48-well microplate (product number “3830-048”, manufactured by AGC Techno Glass) to form a droplet. The cell suspension was added to the interior of each droplet, and the 48-well microplate was then left to stand in an incubator for 40 minutes to form a fibrin gel in which the human hepatocytes were embedded. 0.5 mL of HCM containing 1 v/v % ECGS was added to each well in which the fibrin gel had been formed, and the cells were cultured under the conditions of 37° C. and 5% CO2. After the start of the culture, the medium was changed every two days.

First: CC(=O)Nc1ccc(O)cc1 [Acetaminophen]
Second: Cc1ccc(C(=O)c2cc(O)c(O)c([N+](=O)[O-])c2)cc1 [Tolcapone]
The IC50 of the first is 42-fold higher: 5510 µM for the first, 132 µM for the second.

CCc1oc2ccccc2c1C(=O)c1cc(Br)c(O)c(Br)c1 [Benzbromarone] and O=C(O)Cc1ccccc1Nc1c(Cl)cccc1Cl [Diclofenac] are within 1.5-fold of each other in IC50: 249 µM for the first, 337 µM for the second.

Compared with NC(=O)N1c2ccccc2C=Cc2ccccc21 [Carbamazepine], CS(=O)(=O)Nc1ccc([N+](=O)[O-])cc1Oc1ccccc1 [Nimesulide] is 2.6-fold lower in IC50: 843 µM for the first, 323 µM for the second. The second is the more potent here.

CN(C)CCCN1c2ccccc2Sc2ccc(Cl)cc21 [Chlorpromazine] and CCc1nn(CCCN2CCN(c3cccc(Cl)c3)CC2)c(=O)n1CCOc1ccccc1 [Nefazodone] are within 1.5-fold of each other in IC50: 26.6 µM for the first, 39.9 µM for the second.

CC(C)C(=O)Nc1ccc([N+](=O)[O-])c(C(F)(F)F)c1 [Flutamide] and Cc1c(C)c2c(c(C)c1O)CCC(C)(COc1ccc(CC3SC(=O)NC3=O)cc1)O2 (centres unmarked) [Troglitazone] are within 1.5-fold of each other in IC50: 63.9 µM for the first, 92.9 µM for the second.

Going from CC(=O)N1CCN(c2ccc(OCC3COC(Cn4ccnc4)(c4ccc(Cl)cc4Cl)O3)cc2)CC1 (centres unmarked) [Ketoconazole] to CS(=O)(=O)CCNCc1ccc(-c2ccc3ncnc(Nc4ccc(OCc5cccc(F)c5)c(Cl)c4)c3c2)o1 [Lapatinib], the IC50 falls from 80.7 µM to 8.4 µM (9.6-fold). The second is the more potent here.

C1CCC(C(CC2CCCCN2)C2CCCCC2)CC1 (centres unmarked) [Perhexiline] gave an IC50 of 3.6 µM.

Test system: spheroids consisting only of human hepatocytes (PXB cells)
Assay: ATP assay (CellTiter Glo 3D) viability after exposure to hepatotoxicity-inducing compounds, Test Example 6 Condition 2
Type: cell-based
Details: calculated from cell viability (ATP), hepatocyte spheroids, exposure 168 hours, no bile acids, read-out: IC50 Condition 2 (spheroid)

Going from CC(=O)Nc1ccc(O)cc1 [Acetaminophen] to Cc1ccc(C(=O)c2cc(O)c(O)c([N+](=O)[O-])c2)cc1 [Tolcapone], the IC50 falls from 4670 µM to 92.4 µM (51-fold). The second is the more potent here.

CCc1oc2ccccc2c1C(=O)c1cc(Br)c(O)c(Br)c1 [Benzbromarone] and O=C(O)Cc1ccccc1Nc1c(Cl)cccc1Cl [Diclofenac] are within 1.5-fold of each other in IC50: 256 µM for the first, 297 µM for the second.

NC(=O)N1c2ccccc2C=Cc2ccccc21 [Carbamazepine] and CS(=O)(=O)Nc1ccc([N+](=O)[O-])cc1Oc1ccccc1 [Nimesulide] are within 1.5-fold of each other in IC50: 978 µM for the first, 683 µM for the second.

First: CN(C)CCCN1c2ccccc2Sc2ccc(Cl)cc21 [Chlorpromazine]
Second: CCc1nn(CCCN2CCN(c3cccc(Cl)c3)CC2)c(=O)n1CCOc1ccccc1 [Nefazodone]
The IC50 of the first is 1.9-fold lower: 25 µM for the first, 46.5 µM for the second.

CC(C)C(=O)Nc1ccc([N+](=O)[O-])c(C(F)(F)F)c1 [Flutamide] and Cc1c(C)c2c(c(C)c1O)CCC(C)(COc1ccc(CC3SC(=O)NC3=O)cc1)O2 (centres unmarked) [Troglitazone] are within 1.5-fold of each other in IC50: 178 µM for the first, 202 µM for the second.

First: CC(=O)N1CCN(c2ccc(OCC3COC(Cn4ccnc4)(c4ccc(Cl)cc4Cl)O3)cc2)CC1 (centres unmarked) [Ketoconazole]
Second: CS(=O)(=O)CCNCc1ccc(-c2ccc3ncnc(Nc4ccc(OCc5cccc(F)c5)c(Cl)c4)c3c2)o1 [Lapatinib]
The IC50 of the first is 2.9-fold higher: 79.5 µM for the first, 27.3 µM for the second.

For C1CCC(C(CC2CCCCN2)C2CCCCC2)CC1 (centres unmarked) [Perhexiline], the IC50 was 5.6 µM.
